In patent US11548925B2, “CACNA1H-derived tumor antigen polypeptide and use thereof” (Genoimmune Therapeutics Co., Ltd., priority 2016, dated 2023):

System: H2087-TLISSLMPI (SEQ ID NO: 2) subcutaneous tumor
Test: DC vaccine infected with recombinant lentivirus containing peptide gene in H2087-[…] tumor model
Assay type: in vivo, NOD/SCID mice
Conditions: DC infected with lentivirus carrying peptide gene, 2 injections
Description: The following DNA sequences were synthesized: “[…]” (SEQ ID NO: 8), encoding the wild-type peptide […] (SEQ ID NO: 1); “[…]” (SEQ ID NO: 9), encoding the mutant peptide […] (SEQ ID NO: 2); “[…]” (SEQ ID NO: 10), encoding the SEQ ID NO: 2 […]'s variant peptide […] (SEQ ID NO: 3); “[…]” (SEQ ID NO: 11), encoding the SEQ ID NO: 2 […]'s variant peptide […] (SEQ ID NO: 4); “[…]” (SEQ ID NO: 12), encoding the SEQ ID NO: 2 […]'s variant peptide […] (SEQ ID NO: 5); “[…]” (SEQ ID NO: 13), encoding the SEQ ID NO: 2 […]'s variant peptide […] (SEQ ID NO: 6); and “[…]” (SEQ ID NO: 14), encoding the SEQ ID NO: 2_[…]'s variant peptide […] (SEQ ID NO: 7). The wild-type peptide […] (SEQ ID NO: 1), the mutant peptide […] (SEQ ID NO: 2) and the mutant peptide SEQ ID NO: 2 […]'s variant peptides were constructed into the lentiviral vector pHBLV-Puro, respectively, to name as pHBLV-Puro-[…] (SEQ ID NO: 1), pHBLV-Puro-[…] (SEQ ID NO: 2), pHBLV-Puro-[…] (SEQ ID NO: 3), pHBLV-Puro-[…] (SEQ ID NO: 4), pHBLV-Puro-[…] (SEQ ID NO: 5), pHBLV-Puro-[…] (SEQ ID NO: 6) and pHBLV-Puro-[…] (SEQ ID NO: 7), respectively. The seven lentiviral constructs were co-transfected into 293T cells with helper plasmids pSPAX2 and pMD2G for packaging, and lentiviruses of the wild-type peptide […] (SEQ ID NO: 1), the mutant peptide […] (SEQ ID NO: 2) and the mutant peptide's variant peptides were obtained.
600-900 ml of anticoagulated peripheral blood was collected from healthy volunteers for isolating peripheral blood mononuclear cells (PBMCs) via Ficoll. Cells were collected for use. 2×10^7 PBMCs per 0.5 ml was intraperitoneally injected into each of 300 NOD SCID mice without immune leakage to perform human immune reconstitution in NOD SCID mice. […]
The human non-small cell lung adenocarcinoma cell line H2087-[…] […] The long diameter a and the short diameter b of the tumor were measured with a vernier caliper every 2-3 days and the size of the tumor was calculated as a*b*b/2. The mice and tumors were weighed and recorded every day. […] The tumor volume and the survival rate of mice were recorded every 2 days. […]

For “TLISSLMPI [tumor antigen peptide from CACNA1H mutation, position 1428 arginine to methionine]”, the Tumor-suppressing effect was “significant tumor-suppressing effects” and the “Survival period of mice” value (vs wild-type peptide group) was “prolonged the survival period of mice”.
